Assay results: patent US10450549B2, “Aryloxyphenoxypropionate tolerance in turfrgass species and use of AAD1 as a selectable marker” (Dow AgroSciences, LLC, priority 2004, dated 2019)
Values joined by “and” are separate entries in the source; they are usually repeats but may differ in a detail not shown here. Equal values may be shown once.

Assays:
[1] = tested on: pDAS1421 T0 corn; test: Whole plant quizalofop screening of T0 corn lineages containing AAD1 (v3) and AHAS (pDAS1421); assay type: in vivo; conditions: number of lineages
Description: Seventy-two Agrobacterium-transformed events were selected on various levels of R-haloxyfop acid and R-cyhalofop acid in vitro. Twenty-two callus samples were analyzed by Southern blot analysis for stable integration of AAD1 (v3) into the genome as described previously.
A minimum six regenerated clonal lineages per event were moved to soil in the greenhouse and screened using a track sprayer as previously described to apply 35 g ae/ha quizalofop when 2-4 new, normal leaves had emerged (see section 8.3.3). Presence of AAD1 protein on a Western blot correlated perfectly with herbicide resistance in the T0 generation regardless of which AOPP herbicide was used for selection. There is no negative impact of the second HTC gene (AHAS) on the function of the AAD1 (v3).

[2] = tested on: Agrostis palustris var. Pencross; test: Bentgrass plate test bioassay for herbicide degradation; assay type: in vivo; conditions: AAD1 (v1) extract
Description: Because of the selective nature of the herbicides being tested (i.e., monocot plants controlled by AOPP herbicides and dicot plants controlled by auxinic herbicides), wildtype Agrostis palustris var. Pencross and Arabidopsis thaliana var. Columbia were used as monocot and dicot test species, respectively. Each species is amenable to germination and growth in small Petri dishes.
Twenty to thirty sterilized seeds for each test species used were added onto a sterile, solidified agar Plate Test Medium (PTM) [2.5 mM KNO3, 2.5 mM KH2PO4, […], 10 mM NaEDTA (pH 8.0), 2 mM MgSO4, 2 mM Ca(NO3) 2, 70 μM H3BO3, 14 μM MnCl2, 0.5 μM CuSO4, 1 μM ZnSO4, 0.2 μM NaMoO4.2H2O, 10 μM NaCl, 10 nM CoCl2.H2O, 0.8% (w/v) sucrose, 0.4% agarose (w/v)] for bioassay in 60×15-mm Petri dishes (Falcon 1007). PTM was additionally modified by adding up to six rates of test herbicide standards or herbicide-enzyme test solution dilutions such that the four-fold concentration increments covered a rate range of three orders of magnitude with the GR50 rate (50% growth reduction) approximately in the center of the range.
For herbicide-enzyme test solutions, the maximal concentration was determined based on the nominal concentration before any subsequent enzymatic degradation would occur. Seeds were evenly spread by adding 3 ml of melted PTM of the same composition, swirling, and allowing to solidify. Plates were sealed and maintained under sterile conditions in a low light growth chamber (24 h day^−1, 100 μE/m^2s^1, 23° C.) for 7 days. Root length or root+shoot length were measured for five randomly chosen Arabidopsis and bentgrass plants, respectively, average mean length (percent of untreated control) vs. nominal herbicide concentration and GR50 determined.

[3] = tested on: Non-transformed Hi-II callused suspension tissue; test: Dose response of non-transformed maize callus tissue; assay type: cell-based; conditions: haloxyfop 400 nM
[4] = tested on: F1 progeny of ‘Crenshaw’ creeping bentgrass pDAB5042 events; test: AAD1 whole-plant selectable marker: F1 progeny of Crenshaw pDAB5042 events x elite lines, injury to 240 g ae/ha quizalofop-p-ethyl; assay type: in vivo
Description: The use of AAD1 as a selectable marker for quizalofop selection agent was tested with an “F1” generation of plants that were produced by crossing selected single copy pDAB5042 ‘Crenshaw’ events with non-transgenic elite lines (lines 3425-12, 3427-2, or 3431-1). ‘Crenshaw’ events were vernalized in a growth chamber; elite line crossing partners were field vernalized. Nearing the time of bloom, a non-transgenic plant at the same reproductive stage was moved into the growth chamber in close proximity of the pDAB5042 event. Panicles were secured together with a twist tie, and both panicles were bagged together and labeled. Alternatively, to increase the number of crosses, some panicles were excised and secured to an intact panicle and bagged. At seed harvest, individual seed heads were removed and packaged individually.
Seed were sown on flats containing Metromix™, and germinated in a growth chamber. All emerged seedlings were transplanted into growth medium prepared by mixing Promix® and sand in a 2 to 1 ratio. The medium was contained in plastic pots with a surface area of 84.6 square centimeters (cm^2). Plants were maintained in a greenhouse until established. Leaf tissue from each seedling was harvested for molecular analysis, and tissues were probed for the presence of AAD1. After tissue harvest, the established plants were trimmed to simulate mowing.
The same two plants were the only plants testing positive for one copy of AAD1.

[5] = tested on: transformed-control line containing PAT and Cry1F; test: Foliar-applied auxinic herbicides on control (PAT/Cry1F, wildtype) Arabidopsis, % injury 14 DAT; assay type: in vivo, Arabidopsis thaliana; conditions: PatCry1f - Control
Outline: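 Homozygous T4 AAD1 (v3) Arabidopsis (line AAD1.01.315.076) and a PAT/Cry1F transformed control were grown in pots and track-sprayed foliarly at 187 L/ha with herbicides formulated in 200 mM Hepes pH 7.5. Injury was rated 14 days after treatment, with 3-4 replicates averaged over two experiments.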

**Q.** What does the source list for `C[C@@H](Oc1ccc(Oc2cnc3cc(Cl)ccc3n2)cc1)C(=O)O` [quizalofop]?
**A.** Assessment of T0 lineages resistant to 35 g ae/ha quizalofop: Resistant ([1]; event 1421[3]-036): 8; Assessment of T0 lineages resistant to 35 g ae/ha quizalofop: Sensitive ([1]; event 1421[3]-036): 0; Assessment of T0 lineages resistant to 35 g ae/ha quizalofop: Resistant ([1]; event 1421[4]-031): 9; Assessment of T0 lineages resistant to 35 g ae/ha quizalofop: Sensitive ([1]; event 1421[4]-031): 0; Assessment of T0 lineages resistant to 35 g ae/ha quizalofop: Resistant ([1]; event 1421[4]-032): 8; Assessment of T0 lineages resistant to 35 g ae/ha quizalofop: Sensitive ([1]; event 1421[4]-032): 0; Assessment of T0 lineages resistant to 35 g ae/ha quizalofop: Resistant ([1]; event 1421[4]-033): 12; Assessment of T0 lineages resistant to 35 g ae/ha quizalofop: Sensitive ([1]; event 1421[4]-033): 0; Assessment of T0 lineages resistant to 35 g ae/ha quizalofop: Resistant ([1]; event 1421[4]-034): 8; Assessment of T0 lineages resistant to 35 g ae/ha quizalofop: Sensitive ([1]; event 1421[4]-034): 0; Assessment of T0 lineages resistant to 35 g ae/ha quizalofop: Resistant ([1]; event 1421[4]-035): 6; Assessment of T0 lineages resistant to 35 g ae/ha quizalofop: Sensitive ([1]; event 1421[4]-035): 0; Assessment of T0 lineages resistant to 35 g ae/ha quizalofop: Resistant ([1]; event 1421[21]-016): 8; Assessment of T0 lineages resistant to 35 g ae/ha quizalofop: Sensitive ([1]; event 1421[21]-016): 0; Assessment of T0 lineages resistant to 35 g ae/ha quizalofop: Resistant ([1]; event 1421[22]-020): 8; Assessment of T0 lineages resistant to 35 g ae/ha quizalofop: Sensitive ([1]; event 1421[22]-020): 0; Assessment of T0 lineages resistant to 35 g ae/ha quizalofop: Resistant ([1]; event 1421[22]-022): 8; Assessment of T0 lineages resistant to 35 g ae/ha quizalofop: Sensitive ([1]; event 1421[22]-022): 0; Assessment of T0 lineages resistant to 35 g ae/ha quizalofop: Resistant ([1]; event 1421[22]-023): 8; Assessment of T0 lineages resistant to 35 g ae/ha quizalofop: Sensitive ([1]; event 1421[22]-023): 0

**Q.** Which “herbicidal activity after AAD1 (v1) treatment, bentgrass plate bioassay” value [2] does the source give for `CC(Oc1ccc(Oc2ncc(C(F)(F)F)cc2Cl)cc1)C(=O)O` (stereo not drawn) [haloxyfop] here?
**A.** The value was “loss of herbicidal activity”.

**Q.** What about the “non-transgenic corn callus tissue growth” value [3] of the same molecule?
**A.** The value was “inhibited”.

**Q.** `CCOC(=O)[C@@H](C)Oc1ccc(Oc2cnc3cc(Cl)ccc3n2)cc1` [quizalofop-p-ethyl] was tested. Which “Visual Injury 39 DAA” value ([4]; F1 progeny of 3431-1 × pDAB5042 Event 162) did it give?
**A.** Its value is 100%.

**Q.** What about the “Visual Injury 39 DAA” value ([4]; F1 progeny of NT6 × pDAB5042 Event 186) of the same molecule?
**A.** Its value is 95%.

**Q.** What about the “Visual Injury 39 DAA” value ([4]; individual F1 progeny of 3427-2 × pDAB5042 Event 186) of the same molecule?
**A.** Its value is 60% and 80% and 95% (4×) and 90% and 99% (3×) and 85% and 100% (2×).

**Q.** What about the “Visual Injury 39 DAA” value ([4]; individual F1 progeny of 3431-1 × pDAB5042 Event 127) of the same molecule?
**A.** The value was 90% (4×) and 95% (4×) and 100% (6×) and 99%.

**Q.** And the “Visual Injury 39 DAA” value ([4]; individual F1 progeny of 3431-1 × pDAB5042 Event 186)?
**A.** The value was 100% (6×) and 99% (10×) and 95% (8×) and 80% (2×) and 90%.

**Q.** What about the “Visual Injury 39 DAA” value ([4]; individual F1 progeny of pDAB5042 Event 127 × 3431-1) of the same molecule?
**A.** The value was 99% (3×) and 95%.

**Q.** And the “Visual Injury 39 DAA” value ([4]; individual F1 progeny of pDAB5042 Event 144 × 3425-12)?
**A.** The value was 99% and 100%.

**Q.** What about the “Visual Injury 39 DAA” value ([4]; individual F1 progeny of pDAB5042 Event 186 × 3425-12 (asterisk: AAD1 positive)) of the same molecule?
**A.** The value was 0%.

**Q.** What about the “Visual Injury 39 DAA” value ([4]; individual F1 progeny of pDAB5042 Event 186 × 3431-1) of the same molecule?
**A.** The value was 99% (4×) and 100% (2×) and 90%.

**Q.** What about the “Visual Injury 39 DAA” value ([4]; individual progeny of NT6 × 3427-2) of the same molecule?
**A.** The value was 90% and 100% (2×).

**Q.** How did the “Ave % Injury 14DAT” value ([5]; 50 g ae/ha foliar) turn out when `Nc1c(Cl)c(F)nc(OCC(=O)O)c1Cl` [Fluroxypyr] was run?
**A.** The value was 76%.

**Q.** And the “Ave % Injury 14DAT” value ([5]; 200 g ae/ha foliar)?
**A.** Its value is 85%.

**Q.** What about the “Ave % Injury 14DAT” value ([5]; 800 g ae/ha foliar) of the same molecule?
**A.** Its value is 85%.

**Q.** What about the “Ave % Injury 14DAT” value ([5]; 3200 g ae/ha foliar) of the same molecule?
**A.** Its value is 95%.
